# Reference: patent US20030082229A1, “Parenteral chlorambucil for treatment of malignant and autoimmune disease and methods of use” (priority 2001, published 2003)
# Entries after “also recorded” stand apart in the source; their conditions may differ. Like-named read-outs stand apart in the source and are kept apart here.
# Legend:
# [1] = IV CLB pharmacology in rats; assay type: in vivo, Sprague-Dawley rats
# Excerpt: Male Sprague-Dawley rats with a body weight of 250-300 g were used for the in vivo pharmacology experiments (Harlan-Sprague-Dawley, Houston, Tex.). The animals were allowed a minimum of 3-4 days after arrival to accommodate to the new environment and allowed free access to commercial feed and tap water prior to and during the experimentation period. The animals were housed in facilities that meet the requirements of the U.S. Department of Agriculture, (USDA), National Institute of Health (NIH), and Department of Health and Human Services (DHHS).
# The CLB dose of 5 mg/kg BW was determined to be the highest dose that could be administered to the rats as an IV bolus injection without requiring anticonvulsant premedication.
# The CLB was formulated in EtOH/lipid (prototype EtOH/lipid solvent vehicle) to a stock concentration of 100 mg/ml and then diluted with NS so the dose (5.0 mg/kg) could be injected in a tail vein in a volume of approximately 0.5 ml. The CLB concentrations of the formulation were confirmed by HPLC prior to all administrations. No anticonvulsant premedication for the rats in this experiment was used in order to avoid the possible induction of microsomal liver enzymes that could modify CLB metabolism. The animals were unanesthetized, being only physically restrained during the drug injection for the same reason.
# (§1) Blood samples (0.5-1.0 ml) were drawn in heparinized tubes at selected time points prior to the drug infusion (“blank”), and from 5 min to 6 hours after drug injection for determination of CLB concentrations. The samples were obtained through cardiac puncture under light CO2 anesthesia in the rats and through a prepositioned cephalic vein catheter in the dogs. The blood was centrifuged at 1,000×g for 10 min, and the plasma was removed and stored at−80° C. until extracted and assayed by HPLC.
# physchem = assay type: physicochemical
# Description: The solubility of CLB was determined in several individual vehicles. Briefly, a known amount of CLB drug, formulated as a powder (Sigma, St Louis, Mo.), was equilibrated in the respective solvent at RT over 1-4 hours. An aliquot was removed, filtered, and diluted in methanol (MeOH) before high-pressure liquid chromatography (HPLC) to determine solubility at predetermined times. Based on the CLB solubility in each vehicle, different solvents were mixed according to the cosolvency principle in an attempt to enhance the stable solubility (Spiegel A. J., Noseworthy M. N.: Use of nonaqueous solvents in parenteral products. J. PHARM. SCI. 52:917-927, 1963; Yalkowsky S. H., Roseman T. J.: Solubilization of drugs by cosolvents. In: Yalkowsky S. H. (Ed.): TECHNIQUES OF SOLUBILIZATION OF DRUGS. pp. 91-134. Marcel Dekker Inc., New York, N.Y. 1981).
# An excess of CLB as a powder was added to DMSO, PEG, and PG at RT. Each mixture was placed in a dark environment and checked visually for up to 4 hours for evidence of solubilization. Samples of 1 ml were taken at various time intervals. The CLB concentration was then determined by HPLC after filtration through a 0.45 μm polytetrafluoroethylene (PTFE) membrane filter (Autovial®) fitted to a syringe assembly (Whatman Inc., Springfield Mill, Maidstone, Kent, UK).
# erythrocytes = assay: Hemolysis studies in vitro; assay type: cell-based; conditions: drug concentrations of 100 μg/ml or more
# Excerpt: The procedure of Parthasarathy et al. was used to examine the hemolytic potential of a few selected formulations of the present invention, and the LD50 (concentration that results in 50% lethality or destruction of a population) values of the most optimal formulation was constructed as previously described (Parthasarathy R, Sacks P G, Harris D, et al: Interaction of liposome-associated all-trans-retinoic acid with squamous carcinoma cells. CANCER CHEMOTHER. PHARMACOL. 34:527-34, 1994). Briefly, heparinized blood was mixed with an equal volume of Alsever's solution. This mixture was washed twice in phosphate-buffered saline (PBS), and a 10% (volume per volume, v/v) erythrocyte/PBS solution was then prepared and mixed with increasing amounts of the solvent (prototype EtOH/lipid solvent vehicle and NS) with or without addition of CLB. These resulting mixtures were incubated for 4 hours at 37° C. At the end of the incubation, the cells were pelleted at 10,000×g in an Eppendorf micro-centrifuge, and after washing twice in NS, the pellet was resuspended and lysed using distilled water. The release of hemoglobin in the supernatant (i.e., hemolysis) was determined spectrophotometrically at a wavelength of 550 nm. […]
# The hemolytic potential of the formulations (EtOH/lipid/CLB/NS) were evaluated as described. […]
# [2] = assay type: physicochemical
# [3] = Osmotic pressure measurement (micro-osmometer); assay type: physicochemical; conditions: CLB final concentration 1-5 mg/ml
# Description: It is desirable that a parenteral formulation of a pharmacologically active agent be isosmotic with blood. A hypertonic delivery system can be utilized if the drug formulation is infused through an indwelling (central) venous catheter and gradually diluted in a large blood volume. Osmotic pressures were measured with a micro-osmometer model 3MOplus osmometer (Advanced Instruments Inc., Needham Heights, Mass.). The instrument was calibrated using Advans™ intrinsic calibration standards (Advanced Instruments Inc.) in the range of 500-2000 mOsm/kg. The test solution was placed in a disposable cuvette, and the osmotic pressure readings were recorded. Triplicate measurements were carried out for each vehicle (without CLB), and six measurements were done with drug added. A two-tailed t-test was used to compare the differences in osmotic pressures of various solvent vehicles with and without the addition of CLB (Mann H. B., Whitney D. R.: On a test whether one of two random variables is stochastically larger than the other. ANN. MATH. STATIST. 18: 50-60, 1947).
# [4] = IV CLB pharmacology in beagle dogs; assay type: in vivo
# Description: The CLB given to beagle dogs was prepared as above. The same general design of the experiment was used, except that the dogs received a maximum dose of 7.5 mg/kg BW through a cephalic vein catheter, and the drug was delivered under general anesthesia.
# as §1
# [5] = assay type: physicochemical; conditions: RT
# Excerpt: HPLC assay provides an accurate and sensitive detection system for low concentrations of CLB in solution, both protein-free mixtures and protein-containing fluids (i.e., blood plasma), utilizing absorbency detection in the ultraviolet (UV) spectrum. For the detection a wavelength of 254 nm was chosen on the basis of the inherent absorption maximum of the CLB molecule. The HPLC system was equipped with a Waters 717 plus AutoSampler (Waters, Milford, Mass.). The detector was a Waters Model 486 Tunable Absorbance Detector in sequence with a Waters Millennium™ software package for HPLC (Waters, Milford, Mass.). The column used was a Whatman C-18 EQC […] 125A μBondapak 4.6×216 mm. […] The analytic system was based on previously established extraction and HPLC experience with retinoic acid and with the bifunctional DNA-alkylating drug busulfan (Napoli J L, Pramanik B C, Williams J B et al: Quantification of retinoic acid by gas-liquid chromatography-mass spectrometry: total versus all-trans-retinoic acid in human plasma. J LIPID RES. 26: 387-392, 1985; Chow D S-L, Bhagwatwar H P, Phadungpojna S, Andersson B S: Stability-indicating high-performance liquid chromatographic assay of busulfan in aqueous and plasma samples. J CHROMATOGR B, 704: 277-288, 1997). […]
# [6] = tested on: KBM-7/B5 human myeloid leukemia cell line; assay: In vitro clonogenic cytotoxicity assay, KBM-7/B5; assay type: cell-based; conditions: acetone positive control
# Description: (§2) The cytotoxic potential of selected solvent systems with and without CLB was determined against the two human myeloid leukemia cell lines (HL-60) (Gallagher R. Collins S, Trujillo et al: Characterization of the continuously differentiating myeloid cell line (HL-60) from a patient with acute promyelocytic leukemia. BLOOD 54:254-68, 1979) and human myeloid leukemia cell line (KBM-7/B5) (Andersson B S, Beran M, Pathak S, et al: Ph-positive chronic leukemia with near-haploid conversion in vivo and establishment of a continuously growing cell line with similar cytogenetic pattern. CANCER GENETICS AND CYTOGENET 24:335-43, 1987; Andersson B S, Collins V P, Kurzrock R, et al: KBM-7; human myeloid leukemia cell line with double Philadelphia chromosomes but lacking normal BCR and c-ABL transcripts. LEUKEMIA, 9:2100-2108, 1995). Briefly, HL-60 or KBM-7/B5 cells were suspended at a density of 5,000 cells per ml in Iscove's modified Dulbecco medium (IMDM) supplemented with 20% fetal bovine serum (FBS) and 0.3% agar as viscous support. […] Clones of>50 cells were counted under an inverted phase contrast microscope, and survival curves were constructed as described (Andersson B S, Mroue M, Britten R A, Murray D: The role of DNA damage in the resistance of human chronic myeloid leukemia cells to cyclophosphamide analogs. CANCER RESEARCH 54:5394-5400, 1994).
# [7] = tested on: HL-60 human myeloid leukemia cell line; assay: In vitro clonogenic cytotoxicity assay, HL-60; assay type: cell-based; conditions: acetone positive control
# Description: as §2
# [8] = cited from earlier work
compound,measurement,setting,value
"O=C(O)CCCc1ccc(N(CCCl)CCCl)cc1 [CLB, 4-[Bis(2-chloroethyl)amino]benzenebutanoic acid]","CLB plasma concentrations after IV injection, rats",[1]; 5 mg/kg BW IV,"detectable, cytotoxic CLB plasma concentrations; also recorded: for several hours remained in the cytotoxic range; also recorded: maintained for several hours"
same,"Tolerability of injection, rats",[1]; 5.0 mg/kg BW IV,well tolerated; also recorded: well accepted
same,Highest dose as IV bolus without requiring anticonvulsant premedication,"[1]; rats, IV bolus",5 mg/kg BW
same,solubility,"physchem; DMSO, organic solvent or mixture, thermodynamic from solid, DMSO, RT, read-out: CLB solubility (maximum equilibrium concentration) in DMSO",> 100 mg/mL
same,solubility at 1 h,"physchem; EtOH, organic solvent or mixture, thermodynamic from solid, EtOH, within 1 hour at RT, read-out: CLB solubility (maximum equilibrium concentration) in EtOH",> 100 mg/mL
same,CLB solubility in aqueous solvents,"physchem; NS, 5% dextrose in water, soybean lipid emulsion (Intralipid)",virtually insoluble
same,"Solubilized CLB in PEG-400, PG, NS, 20% soybean lipid emulsion, 5% dextrose",physchem; RT,did not yield any significant concentrations of solubilized drug
same,solubility,"physchem; prototype EtOH/lipid solvent vehicle, aqueous with cosolvent or surfactant or cyclodextrin, thermodynamic from solid, EtOH/emulsified soybean oil vehicle, read-out: CLB solubility in prototype EtOH/lipid solvent vehicle",≥ 100 mg/mL
same,CLB-dependent lysis,erythrocytes,barely exceeded background
same,CLB degradation in DMSO,[2]; DMSO,started degrading within a few hours
same,Time CLB stable in DMSO before significant degradation,"[2]; DMSO, RT",at most 2 hours
same,Time formulation stable after mixing with infusion fluid,"[2]; EtOH/lipid diluted with infusion fluid, RT, listed as Chlorambucil",> 24 h
same,Stability (percent remaining) of infusion formulation,"[2]; RT, over 24 hours, FIG. 1",> 90%
same,"CLB recovered at 24 hours, diluted to 1 mg/ml",[2]; primary stock diluted with NS to 1 mg/ml,> 95%
same,"CLB recovered at 24 hours, diluted to 5 mg/ml",[2]; primary stock diluted with NS to 5 mg/ml,> 95%
same,Change of osmolarity of complete vehicle by addition of CLB,[3],< 5%
same,"CLB plasma concentrations after IV injection, beagles",[4]; 7.5 mg/kg BW IV,"detectable, cytotoxic CLB plasma concentrations; also recorded: for several hours remained in the cytotoxic range; also recorded: maintained for several hours"
same,"Tolerability of injection, beagles",[4]; 7.5 mg/kg BW IV,well accepted
same,"Neurological effect, no premedication","[4]; 7.5 mg/kg BW IV, dogs",generalized seizure; also recorded: caused seizures
same,"Neurological effect, premedicated with diphenylhydantoin","[4]; 7.5 mg/kg BW IV, two dogs",tolerated the CLB administration without any obvious neurological effects
same,half-life,"[4]; dog, plasma, IV, this formulation, FIG. 7 beagle 7.5 mg/kg, read-out: Apparent terminal half-life",~1 h
same,Time CLB stable at 100 mg/ml in EtOH/lipid solvent,"[5]; 100 mg/ml, prototype EtOH/lipid vehicle",more than 7 days
same,Drug still intact at 7 days,"[5]; EtOH/lipid solvent system, HPLC",> 95%
same,"Cytotoxic activity in the formulation vs CLB dissolved in acetone, KBM-7/B5",[6],retained full cytotoxic activity
same,"Cytotoxic activity in the formulation vs CLB dissolved in acetone, HL-60",[7],retained full cytotoxic activity
same,Dose at which dose-limiting neurological toxicity is manifested,"[8]; oral, intermittent schedule, confusion, generalized seizures",≥ 100 mg/m^2 BSA
same,Terminal half-life in blood,[8]; taken by mouth,approximately 60 minutes
